In patent US20070105826A1, “Novel fusidic acid derivatives” (LEO PHARMA A/S, priority 2003, published 2007):
Converted amounts (≈) assume the structure as drawn.

Experiments:
Experiment in all cases: MIC (Minimum Inhibitory Concentration) determination, broth dilution in 96-well plates
Assay type in all cases: cell-based
[1] = system: Staphylococcus aureus 8325-4; conditions: LB broth, aerobic, 37° C., 24 h, cells at t = 0 ˜10^6/ml
Method: (§1) The fusidic acid analogues of the invention and the reference compounds 201 (fusidic acid (as the sodium salt)), 207, 205 203 and 206 (see notes to Table A) were stored in powder form at +4° C. When used in assays, they were dissolved in 95% EtOH (3.84 mg/ml) and kept for a maximum of 1 month at −20° C. before being discarded. [table] LB media (per 1000 ml ddH2O: 10 g Bacto-tryptone, 5 g yeast extract, 10 g NaCl). THB (Todd-Hewitt Broth) media, SIGMA, product number: T1438 (per 1000 ml ddH2O: 50 g Beef-Heart Infusion, 20 g Casein peptone, 2 g Dextrose, 2 g NaHCO3, 2.5 g NaCl, 0.4 g Na2HPO4). Plates were made using an agar concentration of 1.5%. Blood-agar plates contained an additional 5% (v/v) defibrinated horse blood purchased from SLU (Swedish Agricultural University), Uppsala. MIC tests on the compounds were done in 96-well micro titer plates (Thermo Labsystems). 4×10^5 bacteria were inoculated in 0.4 ml growth media (S. aureus, LB broth, S. pyogenes—TH broth) containing serial dilutions of the compound to be tested starting from 128 μg/ml (dilution factor 2, e.g. 128 μg/ml, 64 μg/ml, . . . , 0.016 μg/ml). The criterion for sensitivity is no visible growth after a 24 h, aerobic incubation at 37° C. Each compound was tested at least twice, and fusidic acid was always included as an experimental control. [table]

[2] = system: Staphylococcus aureus CJ12; conditions: LB broth, aerobic, 37° C., 24 h, cells at t = 0 ˜10^6/ml; for MIC: Staphylococcus aureus, CJ12, read-out: Antibacterial activity, MIC, Staph. aureus CJ12
Method: as §1

[3] = system: Streptococcus pyogenes DA7121; conditions: TH broth, aerobic, 37° C., 24 h, cells at t = 0 ˜10^6/ml; for MIC: Streptococcus pyogenes, DA7121, read-out: Antibacterial activity, MIC, Strep. pyogenes DA7121
Method: as §1

[4] = system: Streptococcus pyogenes DA7864; conditions: TH broth, aerobic, 37° C., 24 h, cells at t = 0 ˜10^6/ml; for MIC: Streptococcus pyogenes, DA7864, read-out: Antibacterial activity, MIC, Strep. pyogenes DA7864
Method: as §1

[5] = system: Staphylococcus aureus FDA486; conditions: LB broth, aerobic, 37° C., 24 h, cells at t = 0 ˜10^6/ml; for MIC: Staphylococcus aureus, FDA486, read-out: Antibacterial activity, MIC, Staph. aureus FDA486
Method: as §1

| Compound | Antibacterial activity, MIC, Staph. aureus 8325-4 [1] [µg/mL] | Antibacterial activity, MIC, Staph. aureus CJ12 [2] [µg/mL] | Antibacterial activity, MIC, Strep. pyogenes DA7121 [3] [µg/mL] | Antibacterial activity, MIC, Strep. pyogenes DA7864 [4] [µg/mL] | Antibacterial activity, MIC, Staph. aureus FDA486 [5] [µg/mL] | MIC [2] [µg/mL] | MIC [3] [µg/mL] | MIC [4] [µg/mL] | MIC [5] [µg/mL] | MIC ([1]; Staphylococcus aureus, 83254, read-out: Antibacterial activity, MIC, Staph. aureus 8325-4) [µg/mL] |
| --- | --- | --- | --- | --- | --- | --- | --- | --- | --- | --- |
| 24-bromo-16-deacetoxy-16β-ethoxy-fusidic acid [Compound 116] | 0.11 | 0.06 | 7 | 7 | 0.44 | – | – | – | – | – |
| 24-bromo-17S,20S-dihydrofusidic acid [Compound 115] | 0.11 | 0.06 | 1.8 | 1.8 | 0.88 | – | – | – | – | – |
| 24-bromo-17S,20S-methylene-fusidic acid [Compound 122] | 0.88 | 0.22 | 7 | 7 | 0.88 | – | – | – | – | – |
| CC(=O)O[C@H]1C[C@@]2(C)[C@@H](C[C@@H](O)[C@H]3[C@@]4(C)CC[C@@H](O)[C@@H](C)[C@@H]4CC[C@@]32C)/C1=C(\CCC(Br)=C(C)C)C(=O)O [Compound 108, 24-bromo-fusidic acid] | – | 0.03 | 0.8 | 0.8 | 0.05 | – | – | – | – | – |
| CC(C)=C(Br)CC/C(C(=O)O)=C1\C2C[C@@H](O)C3[C@@]4(C)CC[C@@H](O)[C@@H](C)C4CC[C@]3(C)[C@@]2(C)C[C@@H]1[S+]([O-])C(C)C (stereo partly drawn) [Compound 113, 24-bromo-16-deacetoxy-16β-isopropylsulfinyl-fusidic acid] | – | – | – | – | – | 0.11 (≈ 0.175 µM) | 0.4 (≈ 0.637 µM) | 0.4 (≈ 0.637 µM) | 0.22 (≈ 0.35 µM) | – |
| CC(=O)O[C@H]1C[C@@]2(C)[C@@H](C[C@@H](O)[C@H]3[C@@]4(C)CC[C@@H](O)[C@@H](C)[C@@H]4CC[C@@]32C)/C1=C(\CCC=C(C)C)C(=O)O [Ref. comp. 201, Fusidic acid] | – | – | – | – | – | 0.03 (≈ 0.0581 µM) | 3.5 (≈ 6.77 µM) | 3.5 (≈ 6.77 µM) | 0.11 (≈ 0.213 µM) | 0.03 (≈ 0.0581 µM) |
| CCO[C@H]1C[C@@]2(C)[C@@H](C[C@@H](O)[C@H]3[C@@]4(C)CC[C@@H](O)[C@@H](C)[C@@H]4CC[C@@]32C)/C1=C(\CCC=C(C)C)C(=O)O [Ref. comp. 203, 16-Deacetoxy-16β-ethoxy-fusidic acid] | 0.22 | 0.06 | 7 | 14 | 0.22 | – | – | – | – | – |
| CC(=O)OC1CC2(C)C(CC(O)C3C4(C)CCC(O)C(C)C4CCC32C)C1C(CCC=C(C)C)C(=O)O (stereo not drawn) [Ref. comp. 205, 17S,20S-Dihydrofusidic acid] | 0.11 | 0.06 | 14 | 28 | 0.44 | – | – | – | – | – |
| CC(=O)O[C@H]1C[C@@]2(C)[C@@H](C[C@@H](O)[C@H]3[C@@]4(C)CC[C@@H](O)[C@@H](C)[C@@H]4CC[C@@]32C)[C@]12C[C@]2(CCC=C(C)C)C(=O)O [Ref. comp. 206, 17S,20S-Methylene-fusidic acid] | 0.11 | 0.06 | >32 | 28 | 0.22 | – | – | – | – | – |
| CC(C)=CCC/C(C(=O)O)=C1/[C@@H]([S+]([O-])C(C)C)C[C@@]2(C)[C@H]1C[C@@H](O)[C@H]1[C@@]3(C)CC[C@@H](O)[C@@H](C)[C@@H]3CC[C@@]12C (stereo partly drawn) [Ref. comp. 207, 16-Deacetoxy-16β-isopropylsulfinyl-fusidic acid] | – | 0.05 | 1.6 | 1.6 | 0.22 | – | – | – | – | – |
